From ChEMBL document CHEMBL4311992, “Discovery of 3-(((9H-purin-6-yl)amino)methyl)-4,6-dimethylpyridin-2(1H)-one derivatives as novel tubulin polymerization inhibitors for treatment of cancer” (Eur J Med Chem, 2019)
Active and inactive are the calls of the source. The rule behind the calls is not given here.

Key:
[1] = target: Testis-specific serine/threonine-protein kinase 2 (Homo sapiens) (UniProt Q96PF2); experiment: Inhibition of recombinant full-length human TSSK2 assessed as residual activity at 10 uM using KKKVSRSGLYRSPSMPENLNRPR as substrate measured after 40 mins in presence of [gamma33P]ATP by scintillation counting method
[2] = tested on: Receptor-type tyrosine-protein kinase FLT3 (Homo sapiens), P36888 [D835Y]; experiment: Inhibition of recombinant human Flt3 D835Y mutant (564 to end residues) assessed as residual activity at 10 uM using EAIYAAPFAKKK as substrate measured after 40 mins in presence of [gamma33P]ATP by scintillation counting method
[3] = target: Serine/threonine-protein kinase N2 (Homo sapiens) (UniProt Q16513); experiment: Inhibition of human PRK2 (501 to end residues) using AKRRRLSSLRA as substrate measured after 40 mins in presence of [gamma33P]ATP by scintillation counting method; design: scale not given: the % may be the effect or the level left
Chain of Serine/threonine-protein kinase N2 (Homo sapiens) (Q16513 whole entry, looked up): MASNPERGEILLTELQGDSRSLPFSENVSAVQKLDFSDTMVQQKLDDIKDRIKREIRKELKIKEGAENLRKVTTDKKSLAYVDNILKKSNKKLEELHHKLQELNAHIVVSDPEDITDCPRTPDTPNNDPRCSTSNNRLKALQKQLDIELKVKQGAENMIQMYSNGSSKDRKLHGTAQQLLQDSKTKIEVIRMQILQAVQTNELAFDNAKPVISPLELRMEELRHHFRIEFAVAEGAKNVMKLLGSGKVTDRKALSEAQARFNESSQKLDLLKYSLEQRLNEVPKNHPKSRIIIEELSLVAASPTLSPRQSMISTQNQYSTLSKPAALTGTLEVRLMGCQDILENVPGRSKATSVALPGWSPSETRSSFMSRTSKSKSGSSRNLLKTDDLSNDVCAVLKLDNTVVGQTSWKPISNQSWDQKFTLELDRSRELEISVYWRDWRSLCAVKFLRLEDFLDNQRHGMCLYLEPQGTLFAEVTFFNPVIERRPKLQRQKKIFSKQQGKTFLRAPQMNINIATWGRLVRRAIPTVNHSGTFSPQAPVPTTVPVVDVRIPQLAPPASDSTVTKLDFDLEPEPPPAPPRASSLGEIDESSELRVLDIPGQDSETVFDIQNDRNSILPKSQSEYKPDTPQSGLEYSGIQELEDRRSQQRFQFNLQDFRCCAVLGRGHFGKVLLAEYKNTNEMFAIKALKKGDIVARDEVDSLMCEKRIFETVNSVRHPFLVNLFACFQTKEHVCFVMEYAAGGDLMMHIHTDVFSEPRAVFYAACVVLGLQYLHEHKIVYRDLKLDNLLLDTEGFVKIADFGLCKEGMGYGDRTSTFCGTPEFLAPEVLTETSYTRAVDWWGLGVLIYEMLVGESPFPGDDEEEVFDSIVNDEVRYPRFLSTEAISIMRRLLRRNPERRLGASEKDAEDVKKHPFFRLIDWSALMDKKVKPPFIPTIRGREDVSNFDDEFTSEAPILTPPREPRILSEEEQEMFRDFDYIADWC

[4] = tested on: Calcium/calmodulin-dependent protein kinase kinase 2 (Homo sapiens), Q96RR4 [T85S]; experiment: Inhibition of recombinant full-length human CAMKk2 T85S mutant assessed as residual activity at 10 uM using calmodulin as substrate measured after 40 mins in presence of [gamma33P]ATP by scintillation counting method
[5] = target: Calcium/calmodulin-dependent protein kinase type IV (Homo sapiens) (UniProt Q16566); experiment: Inhibition of recombinant full-length human CaMK4 assessed as residual activity at 10 uM using calmodulin as substrate measured after 40 mins in presence of [gamma33P]ATP by scintillation counting method
[6] = target: Myosin-IIIb (Homo sapiens) (UniProt Q8WXR4); experiment: Inhibition of recombinant full-length human MYO3B (1 to 326 residues) assessed as residual activity at 10 uM using RLGRDKYKTLRQIRQ as substrate measured after 40 mins in presence of [gamma33P]ATP by scintillation counting method
[7] = target: Serine/threonine-protein kinase STK11 (Homo sapiens) (UniProt Q15831); experiment: Inhibition of recombinant full-length human LKB1 assessed as residual activity at 10 uM using LSNLYHQGKFLQTFCGSPLYRRR as substrate measured after 40 mins in presence of [gamma33P]ATP by scintillation counting method
[8] = tested on: Serine/threonine-protein kinase TAO3 (Homo sapiens), Q9H2K8 [UNDEFINED MUTATION]; experiment: Inhibition of human TAO3 (1 to 411 residues) using myelin basic protein as substrate measured after 40 mins in presence of [gamma33P]ATP by scintillation counting method; design: scale not given: the % may be the effect or the level left
Chain of Serine/threonine-protein kinase TAO3 (Homo sapiens), Q9H2K8 [UNDEFINED MUTATION] (Q9H2K8 whole entry, looked up, stated change not applied, the tested form may be a part): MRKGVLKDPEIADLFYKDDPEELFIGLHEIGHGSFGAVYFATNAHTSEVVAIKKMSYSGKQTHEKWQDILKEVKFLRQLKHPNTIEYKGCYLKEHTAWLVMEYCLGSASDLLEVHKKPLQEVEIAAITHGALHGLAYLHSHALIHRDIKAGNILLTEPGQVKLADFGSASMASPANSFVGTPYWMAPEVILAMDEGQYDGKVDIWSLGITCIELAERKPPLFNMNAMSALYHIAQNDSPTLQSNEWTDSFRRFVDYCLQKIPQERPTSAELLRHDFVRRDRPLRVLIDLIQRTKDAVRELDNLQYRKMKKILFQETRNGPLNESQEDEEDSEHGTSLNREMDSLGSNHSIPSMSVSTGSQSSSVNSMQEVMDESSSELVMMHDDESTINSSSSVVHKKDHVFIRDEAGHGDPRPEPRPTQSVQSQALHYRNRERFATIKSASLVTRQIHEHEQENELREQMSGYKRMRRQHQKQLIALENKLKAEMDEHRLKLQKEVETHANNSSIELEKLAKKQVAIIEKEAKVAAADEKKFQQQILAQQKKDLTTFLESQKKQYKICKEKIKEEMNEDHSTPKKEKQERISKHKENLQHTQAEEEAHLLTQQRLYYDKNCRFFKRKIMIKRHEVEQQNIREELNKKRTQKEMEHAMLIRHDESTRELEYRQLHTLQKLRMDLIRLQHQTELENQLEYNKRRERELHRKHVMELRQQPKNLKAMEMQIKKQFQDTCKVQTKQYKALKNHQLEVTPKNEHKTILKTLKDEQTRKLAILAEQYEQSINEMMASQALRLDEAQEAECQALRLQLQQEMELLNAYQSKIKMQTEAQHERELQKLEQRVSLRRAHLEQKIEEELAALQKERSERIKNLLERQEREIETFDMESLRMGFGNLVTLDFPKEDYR

[9] = target: Leucine-rich repeat serine/threonine-protein kinase 2 (Homo sapiens) (UniProt Q5S007); experiment: Inhibition of recombinant human LRRK2 (970 to end residues) assessed as residual activity at 10 uM using RLGRDKYKTLRQIRQ as substrate measured after 40 mins in presence of [gamma33P]ATP by scintillation counting method
[10] = tested on: Serine/threonine-protein kinase Chk2 (Homo sapiens), O96017 [I157T]; experiment: Inhibition of recombinant human CHK2 I157T mutant (5 to end residues) assessed as residual activity at 10 uM using KKKVSRSGLYRSPSMPENLNRPR as substrate measured after 40 mins in presence of [gamma33P]ATP by scintillation counting method
Chain of Serine/threonine-protein kinase Chk2 (Homo sapiens), O96017 [I157T] (O96017 whole entry I157T): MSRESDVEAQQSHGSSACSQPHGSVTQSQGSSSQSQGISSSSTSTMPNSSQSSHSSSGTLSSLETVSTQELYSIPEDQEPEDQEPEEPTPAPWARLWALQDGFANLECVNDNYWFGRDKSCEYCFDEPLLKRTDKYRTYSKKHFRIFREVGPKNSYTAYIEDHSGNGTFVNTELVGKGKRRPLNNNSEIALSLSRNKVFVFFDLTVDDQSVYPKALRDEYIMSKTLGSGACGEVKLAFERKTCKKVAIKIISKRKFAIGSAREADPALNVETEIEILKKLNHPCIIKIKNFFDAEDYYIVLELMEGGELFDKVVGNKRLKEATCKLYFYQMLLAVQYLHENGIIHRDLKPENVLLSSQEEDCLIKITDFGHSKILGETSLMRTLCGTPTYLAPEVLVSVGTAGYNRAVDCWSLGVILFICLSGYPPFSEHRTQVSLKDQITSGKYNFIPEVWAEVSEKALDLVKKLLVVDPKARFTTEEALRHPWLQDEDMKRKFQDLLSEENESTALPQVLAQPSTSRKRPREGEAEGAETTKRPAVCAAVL

HCT-116 = experiment: Cell cycle arrest in human HCT116 cells assessed as up regulation of cdc25 expression up to 150 nM after 24 hrs by Western blot analysis; type: functional, cell-based
HepG2 = experiment: cells; conditions: Homo sapiens, HepG2, 72 h
[11] = target: Bone morphogenetic protein receptor type-1B (Homo sapiens) (UniProt O00238); experiment: Inhibition of recombinant human ALK6 (148 to end residues) assessed as residual activity at 10 uM using casein as substrate measured after 40 mins in presence of [gamma33P]ATP by scintillation counting method
Chain of Bone morphogenetic protein receptor type-1B (Homo sapiens) (O00238 whole entry, the tested form may be a part): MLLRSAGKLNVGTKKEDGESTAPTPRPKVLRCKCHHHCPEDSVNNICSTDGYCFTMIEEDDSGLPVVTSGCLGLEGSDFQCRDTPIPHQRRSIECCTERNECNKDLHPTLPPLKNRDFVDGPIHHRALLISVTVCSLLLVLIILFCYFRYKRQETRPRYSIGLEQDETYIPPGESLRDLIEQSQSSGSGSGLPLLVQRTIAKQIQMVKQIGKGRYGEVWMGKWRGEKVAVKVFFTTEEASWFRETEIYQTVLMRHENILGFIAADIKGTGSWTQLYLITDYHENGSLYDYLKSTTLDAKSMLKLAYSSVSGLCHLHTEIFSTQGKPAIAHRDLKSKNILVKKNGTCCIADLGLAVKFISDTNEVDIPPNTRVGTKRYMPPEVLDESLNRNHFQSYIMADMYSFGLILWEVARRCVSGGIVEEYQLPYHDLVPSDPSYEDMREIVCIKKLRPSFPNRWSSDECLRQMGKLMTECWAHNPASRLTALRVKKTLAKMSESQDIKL

[12] = target: Ephrin type-A receptor 7 (Homo sapiens) (UniProt Q15375); experiment: Inhibition of recombinant human EphA7 (613 to 909 residues) assessed as residual activity at 10 uM using KTFCGTPEYLAPEVRREPRILSEEEQEMFRDFDYIADWC as substrate measured after 40 mins in presence of [gamma33P]ATP by scintillation counting method
[13] = Toxicity in nude BALB/c mouse assessed as change in glucose level at 40 to 80 mg/kg, po once daily for 4 weeks measured post-last dose; type: organism-based; conditions: in vivo, 672 h
[14] = target: Serine/threonine-protein kinase WNK1 (Homo sapiens) (UniProt Q9H4A3); experiment: Inhibition of human WNK1 (1 to 491 residues) using myelin basic protein as substrate measured after 120 mins in presence of [gamma33P]ATP by scintillation counting method; design: scale not given: the % may be the effect or the level left
[15] = tested on: Hepatocyte growth factor receptor (Homo sapiens), P08581 [D1228H]; experiment: Inhibition of recombinant human MET A1209G/V1290L/D1246H mutant (974 to end residues) assessed as residual activity at 10 uM using KKKGQEEEYVFIE as substrate measured after 40 mins in presence of [gamma33P]ATP by scintillation counting method
[16] = target: Tyrosine-protein kinase Fer (Homo sapiens) (UniProt P16591); experiment: Inhibition of recombinant human FER (541 to end residues) assessed as residual activity at 10 uM using KKKSPGEYVNIEFG as substrate measured after 40 mins in presence of [gamma33P]ATP by scintillation counting method
Chain of Tyrosine-protein kinase Fer (Homo sapiens) (P16591 whole entry, looked up): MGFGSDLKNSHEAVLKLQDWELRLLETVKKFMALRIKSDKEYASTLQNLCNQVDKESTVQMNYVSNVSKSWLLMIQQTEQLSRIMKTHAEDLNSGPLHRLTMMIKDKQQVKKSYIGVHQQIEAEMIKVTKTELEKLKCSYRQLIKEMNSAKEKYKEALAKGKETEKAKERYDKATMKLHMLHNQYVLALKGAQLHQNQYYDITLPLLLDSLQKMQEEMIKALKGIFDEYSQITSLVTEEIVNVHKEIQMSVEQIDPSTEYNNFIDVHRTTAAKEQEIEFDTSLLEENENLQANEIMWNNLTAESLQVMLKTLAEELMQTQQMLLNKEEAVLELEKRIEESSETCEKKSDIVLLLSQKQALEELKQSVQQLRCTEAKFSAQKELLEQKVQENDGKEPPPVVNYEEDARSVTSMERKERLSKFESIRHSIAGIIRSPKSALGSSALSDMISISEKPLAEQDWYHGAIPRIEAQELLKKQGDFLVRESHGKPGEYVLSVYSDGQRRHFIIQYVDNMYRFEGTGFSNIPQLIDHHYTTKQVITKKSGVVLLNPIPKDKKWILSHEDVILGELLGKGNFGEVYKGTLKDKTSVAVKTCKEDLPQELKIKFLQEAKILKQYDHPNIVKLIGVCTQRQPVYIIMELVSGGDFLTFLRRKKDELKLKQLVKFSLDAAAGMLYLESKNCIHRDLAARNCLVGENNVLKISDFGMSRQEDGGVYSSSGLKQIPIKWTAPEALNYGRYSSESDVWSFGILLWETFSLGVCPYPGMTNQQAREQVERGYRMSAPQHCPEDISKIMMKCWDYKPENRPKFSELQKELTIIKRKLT

Tubulin (Homo sapiens) = Tubulin (Homo sapiens) (UniProt P68371+Q9H4B7+P0DPH7+P68366+Q13509+Q71U36+P04350+Q3ZCM7+P07437+P68363+Q9BQE3+Q6PEY2+Q13885+Q9BVA1+Q9BUF5); experiment: Disruption of microtubule network in human SW620 cells assessed as microtubule disorganization at 50 nM for 18 hrs by FITC/DAPI staining-based confocal microscopic analysis; type: cell-based
[17] = tested on: RAC-beta serine/threonine-protein kinase (Homo sapiens), P31751 [S474D]; experiment: Inhibition of recombinant full-length human PKBbeta S474D mutant (120 to end residues) assessed as residual activity at 10 uM using GRPRTSSFAEGKK as substrate measured after 40 mins in presence of [gamma33P]ATP by scintillation counting method
[18] = target: Serine/threonine-protein kinase TAO2 (Homo sapiens) (UniProt Q9UL54); experiment: Inhibition of human TAO2 (1 to 320 residues) using myelin basic protein as substrate measured after 40 mins in presence of [gamma33P]ATP by scintillation counting method; design: scale not given: the % may be the effect or the level left
Chain of Serine/threonine-protein kinase TAO2 (Homo sapiens) (Q9UL54 whole entry, the tested form may be a part): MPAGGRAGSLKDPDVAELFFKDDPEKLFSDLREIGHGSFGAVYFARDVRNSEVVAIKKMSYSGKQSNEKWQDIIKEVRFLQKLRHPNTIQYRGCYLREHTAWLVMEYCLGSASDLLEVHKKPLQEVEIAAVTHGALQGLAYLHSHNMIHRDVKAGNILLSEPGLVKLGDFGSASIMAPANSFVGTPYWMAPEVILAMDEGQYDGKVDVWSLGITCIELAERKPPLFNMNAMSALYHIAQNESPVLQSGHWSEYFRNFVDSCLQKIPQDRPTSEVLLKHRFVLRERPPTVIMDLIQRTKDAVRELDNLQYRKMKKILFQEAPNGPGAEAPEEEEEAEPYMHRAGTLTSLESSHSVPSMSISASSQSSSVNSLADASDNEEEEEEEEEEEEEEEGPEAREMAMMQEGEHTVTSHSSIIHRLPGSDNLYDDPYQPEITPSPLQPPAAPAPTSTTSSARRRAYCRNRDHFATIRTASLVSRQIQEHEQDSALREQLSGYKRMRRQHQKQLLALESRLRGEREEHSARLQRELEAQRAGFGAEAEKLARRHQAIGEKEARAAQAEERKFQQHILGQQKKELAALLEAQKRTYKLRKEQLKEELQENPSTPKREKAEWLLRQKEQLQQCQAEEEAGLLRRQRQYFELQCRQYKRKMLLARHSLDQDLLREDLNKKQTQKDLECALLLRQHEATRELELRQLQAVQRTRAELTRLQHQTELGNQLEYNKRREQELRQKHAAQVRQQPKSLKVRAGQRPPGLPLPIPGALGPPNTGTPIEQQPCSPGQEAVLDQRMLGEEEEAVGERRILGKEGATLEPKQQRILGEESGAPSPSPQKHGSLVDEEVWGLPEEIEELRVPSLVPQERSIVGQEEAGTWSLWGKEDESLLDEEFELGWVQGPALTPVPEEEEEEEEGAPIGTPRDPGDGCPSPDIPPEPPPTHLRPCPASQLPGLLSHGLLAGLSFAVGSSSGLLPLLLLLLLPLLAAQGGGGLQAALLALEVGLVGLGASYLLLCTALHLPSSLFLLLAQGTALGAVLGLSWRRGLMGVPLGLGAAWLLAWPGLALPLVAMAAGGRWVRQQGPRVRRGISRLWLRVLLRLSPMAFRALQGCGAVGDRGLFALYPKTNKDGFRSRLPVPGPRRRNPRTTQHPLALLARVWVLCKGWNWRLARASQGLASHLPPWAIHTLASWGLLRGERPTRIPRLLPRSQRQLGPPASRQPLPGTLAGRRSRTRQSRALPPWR

[19] = target: High affinity nerve growth factor receptor (Homo sapiens) (UniProt P04629); experiment: Inhibition of human TrkA (440 to end residues) using KKKSPGEYVNIEFG as substrate measured after 40 mins in presence of [gamma33P]ATP by scintillation counting method; design: scale not given: the % may be the effect or the level left
[20] = tested on: TGF-beta receptor type-1 (Homo sapiens), P36897 [T204D]; experiment: Inhibition of human TGFBR1 T204D mutant (200 to end residues) using casein as substrate measured after 40 mins in presence of [gamma33P]ATP by scintillation counting method; design: scale not given: the % may be the effect or the level left

Compound `Cc1cc(C)c(CNc2nc(Cl)nc3c2ncn3C2CCCC2)c(=O)[nH]1` has an Activity [1] of 117%, an Activity [2] of 85.5% and an Activity [3] of 116%. It also gave an Activity [4] of 99.5%, an Activity [5] of 121% and an Activity [6] of 111%. It also gave an Activity [7] of 110%, an Activity [8] of 97% and an Activity [9] of 100%. For the same compound, the Activity [10] was 103%, the Activity (HCT-116) was “Active” and the IC50 (HepG2) was 80 nM. For the same compound, the Activity [11] was 103%, the Activity [12] was 98.5% and the Activity [13] was “Non-Toxic”. The Activity [14] was 104%, the Activity [15] was 108% and the Activity [16] was 108%. For the same compound, the Activity (Tubulin (Homo sapiens)) was “Active”, the Activity [17] was 114% and the Activity [18] was 104%. The Activity [19] was 92% and the Activity [20] was 98%.
